Test results published in ChEMBL document CHEMBL1201862, “PubChem BioAssay data set” (2004).
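Each compound was tested at five concentrations against cells in 96-well plates for 48 hours. At the GI50, growth is halved.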 Active and inactive are the calls of the source. Rule as the data show it: active = GI50 up to about 1.1 µM and inactive = higher.

What was measured:
Assay in all cases: NCI tumour cell line growth inhibition, 48 h
COLO 205 = tested on: COLO 205
UACC-62 = tested on: UACC-62
SN12C = tested on: SN12C
U-251 = tested on: U-251
A498 = tested on: A498
HT-29 = tested on: HT-29
SF-268 = tested on: SF-268
DMS-114 = tested on: DMS-114
KM12 = tested on: KM12
OVCAR-4 = tested on: OVCAR-4
SK-MEL-28 = tested on: SK-MEL-28
NCI-H226 = tested on: NCI-H226
DU-145 = tested on: DU-145
MDA-N = tested on: MDA-N
SR = tested on: SR
ACHN = tested on: ACHN
MDA-MB-231 = tested on: MDA-MB-231
MDA-MB-435 = tested on: MDA-MB-435
786-0 = tested on: 786-0
Hs-578T = tested on: Hs-578T

SMILES	GI50 (COLO 205)	GI50 (UACC-62)	GI50 (SN12C)	GI50 (U-251)	GI50 (A498)	GI50 (HT-29)	GI50 (SF-268)	GI50 (DMS-114)	GI50 (KM12)	GI50 (OVCAR-4)	GI50 (SK-MEL-28)	GI50 (NCI-H226)	GI50 (DU-145)	GI50 (MDA-N)	GI50 (SR)	GI50 (ACHN)	GI50 (MDA-MB-231)	GI50 (MDA-MB-435)	GI50 (786-0)	GI50 (Hs-578T)
CN(C)CCNC(=O)c1cccc2[nH]c(-c3ccccn3)nc12	14 µM (inactive)	20.2 µM (inactive)	34.8 µM (inactive)	38.8 µM (inactive)	36.6 µM (inactive)	19.6 µM (inactive)	28 µM (inactive)	27 µM (inactive)	41.6 µM (inactive)	27.5 µM (inactive)	36.6 µM (inactive)	18.5 µM (inactive)								
O=C(O)c1ccccc1Sc1ccc(C=C2NC(=S)N(c3ccccc3)C2=O)s1	54.7 µM (inactive)	> 100 µM (inactive)	> 100 µM (inactive)	> 100 µM (inactive)	> 100 µM (inactive)	> 100 µM (inactive)	> 100 µM (inactive)		> 100 µM (inactive)	24.9 µM (inactive)	> 100 µM (inactive)	> 100 µM (inactive)	> 100 µM (inactive)	> 100 µM (inactive)	29 µM (inactive)	39.6 µM (inactive)	> 100 µM (inactive)	> 100 µM (inactive)	18.8 µM (inactive)	> 100 µM (inactive)
C=C(CO)CC(O)c1ccccc1 (configuration not stated)	> 100 µM (inactive)	> 100 µM (inactive)	> 100 µM (inactive)	> 100 µM (inactive)	> 100 µM (inactive)	> 100 µM (inactive)	> 100 µM (inactive)	> 100 µM (inactive)	> 100 µM (inactive)	> 100 µM (inactive)	> 100 µM (inactive)	> 100 µM (inactive)				> 100 µM (inactive)			> 100 µM (inactive)	
Cc1cc(C)c2c(=N)c3ccccc3n(CCCCCCn3c4ccccc4c(=N)c4c(C)cc(C)nc43)c2n1	1.57 µM (inactive)	1.77 µM (inactive)	1.5 µM (inactive)	0.252 µM (active)	1.73 µM (inactive)	0.462 µM (active)	1.56 µM (inactive)		0.346 µM (active)	1.43 µM (inactive)	1.28 µM (inactive)	1.66 µM (inactive)	1.74 µM (inactive)	1.78 µM (inactive)	0.197 µM (active)	1.55 µM (inactive)	0.447 µM (active)	1.77 µM (inactive)	0.224 µM (active)	1.66 µM (inactive)
O=C1C2CN(Cc3ccccc3)CC1CN(CC1CC1)C2	> 100 µM (inactive)	> 100 µM (inactive)	> 100 µM (inactive)	> 100 µM (inactive)	> 100 µM (inactive)	> 100 µM (inactive)	> 100 µM (inactive)	> 100 µM (inactive)	> 100 µM (inactive)	> 100 µM (inactive)	> 100 µM (inactive)	> 100 µM (inactive)				> 100 µM (inactive)			> 100 µM (inactive)	
CC(=O)OCCOCNC(=S)N/N=C/c1ccc([N+](=O)[O-])o1	15 µM (inactive)	18.5 µM (inactive)	74.5 µM (inactive)	83.9 µM (inactive)	> 100 µM (inactive)	30.3 µM (inactive)	29.5 µM (inactive)	17.1 µM (inactive)	57 µM (inactive)	> 100 µM (inactive)	98.4 µM (inactive)	98.4 µM (inactive)				60.5 µM (inactive)			> 100 µM (inactive)	
O=C1C(c2ccccc2)=C(c2ccccc2)C(c2ccc(CCCCCCc3ccc(C4=C(c5ccccc5)C(=O)C(c5ccccc5)=C4c4ccccc4)cc3)cc2)=C1c1ccccc1	> 100 µM (inactive)	> 100 µM (inactive)	> 100 µM (inactive)	64.6 µM (inactive)		> 100 µM (inactive)	> 100 µM (inactive)	> 100 µM (inactive)	> 100 µM (inactive)	> 100 µM (inactive)	> 100 µM (inactive)					> 100 µM (inactive)			> 100 µM (inactive)	
O=C1/C(=C2\SCC(=O)N2c2ccccc2)SC(=S)N1c1ccccc1	67 µM (inactive)	55 µM (inactive)	25.6 µM (inactive)	30.4 µM (inactive)	40.4 µM (inactive)	56.1 µM (inactive)	41.8 µM (inactive)		51.9 µM (inactive)	23.8 µM (inactive)	35.9 µM (inactive)	20.5 µM (inactive)	34 µM (inactive)	44.2 µM (inactive)	12 µM (inactive)	26.2 µM (inactive)	20.6 µM (inactive)	32.1 µM (inactive)	47.6 µM (inactive)	34.5 µM (inactive)
CN1C(=O)C2C(C1=O)C1(O)c3ccccc3C2(N)c2ccccc21 (configuration not stated)	> 100 µM (inactive)	> 100 µM (inactive)	> 100 µM (inactive)	> 100 µM (inactive)	35.2 µM (inactive)	> 100 µM (inactive)	> 100 µM (inactive)	> 100 µM (inactive)	> 100 µM (inactive)	> 100 µM (inactive)	> 100 µM (inactive)	> 100 µM (inactive)				> 100 µM (inactive)			> 100 µM (inactive)	
